The text below walks through data of paper PMC12651578, “Ultrasound-Assisted Fibril Formation Enhances Complexation of Oat Globulin with Quercetin: Mechanism, Structure Evolution, Delivery Performance” (Foods, 2025).

Data set [1] is described as follows: Photostability of Que under 365 nm UV lamp. Type of data set: physicochemical. The settings on record: 1.32 mW/cm^2, 150 min. The method, then: The photostability of encapsulated Que was assessed using a 365 nm UV lamp with a light intensity of 1.32 mW/cm^2. Aliquots of 5 mL from each sample group were placed 10 cm away from the UV light source and exposed for various durations (0, 10, 30, 60, 90, 120, and 150 min). The retention of Que in each sample was then measured.

Data set [2] can be described thus: In vitro simulated gastrointestinal digestion, bioaccessibility of Que. It counts as in vitro ADME. The settings on record: simulated gastric (2 h) and intestinal (2 h) digestion, 37 °C. How it is done:
The release behavior and bioaccessibility of Que in the complex system were evaluated using an in vitro simulated digestion model with modifications based on previous studies. Briefly, sample solutions loaded with Que (protein concentration: 4 mg/mL) were mixed with equal volumes (10 mL) of simulated gastric fluid containing pepsin. The pH was adjusted to 2.0 using 6 M HCl, and the mixture was incubated at 37 °C with shaking at 100 rpm to simulate gastric digestion for 2 h. Afterward, the pH was adjusted to 7.0 to terminate gastric digestion. For intestinal digestion, 5 mL of the gastric digest was mixed with 5 mL of simulated intestinal fluid containing trypsin and bile salts, followed by incubation at 37 °C for another 2 h. The collected digestion products were centrifuged at 10,000× g for 30 min at 4 °C, and the supernatant was analyzed for Que content to determine the bioaccessibility: (8) Bioaccessibility of Que%=Csupernatant/Cdigesta×100% where Csupernatant denotes the Que content in the supernatant after digestion, and Cdigesta refers to the total Que content in the final digesta after simulated gastrointestinal digestion.

A short description of data set [3]: Thermal stability of Que at 85 °C. It counts as physicochemical. The method, then:
The thermal stability of Que was evaluated following a previously described method with slight modifications. Briefly, 5 mL aliquots of free Que suspension (control), OG-Que complex solution, OGF-Que complex solution, and UOGF-Que complex solution were placed in a water bath at 85 °C under dark conditions in sealed containers. At predetermined time intervals (0, 10, 30, 60, 90, 120, and 150 min), samples were withdrawn, rapidly cooled to 25 °C, vortexed, and analyzed for Que retention.

Data set [4] has as its target T1, OGF.
T1 construct: amyloid-like fibrils made by acid-heat treatment without ultrasound, partly hydrolysed
Kind of data set: Intrinsic protein fluorescence quenching by quercetin (0-30 uM, 0.3 mg/mL protein, pH 3.2, inner filter corrected), double-logarithmic Stern-Volmer plot, 298 K. It counts as binding. The following applies: n = 3. The method, then:
(§1) Intrinsic fluorescence spectroscopy was employed to investigate the interaction between OG and its fibrillar products with Que. The binding capacities of OG, OGF, and UOGF were evaluated at pH 3.2 with various concentrations of Que (0, 2.5, 5, 10, 15, 20, and 30 μM). The mixed samples were incubated at different temperatures of 24.85, 30.85, and 36.85 °C (298, 304, and 310 K) for 30 min. Then the intrinsic fluorescence spectra of each sample (0.3 mg/mL) were recorded using a Cary Eclipse fluorescence spectrophotometer (Agilent Technologies, Santa Clara, CA, USA) following to the previously described protocols. The instrument voltage was set to 650 V, with a slit width and scan rate of 5 nm and 1000 nm/min, respectively. Meanwhile, to correct for the inner filter effect, the following equation was applied as described by Ren et al.. (1) Fc=Fm×10^(Aex+Aem)/2 where Fc and Fm represent the corrected and measured fluorescence intensities, while Aex and Aem denote the absorbance at the excitation and emission wavelengths, respectively.
(§2) The fluorescence quenching mechanism of the complex system was further analyzed by fitting the obtained fluorescence intensity data using the Stern–Volmer equation: (2) F0/F=1+KSVQ=1+Kqτ0Q where F0 and F represent the fluorescence intensities of OG and its fibrils before and after the addition of the polyphenol quencher (Que), respectively; KSV is the Stern–Volmer quenching constant; Kq is the quenching rate constant; [Q] is the concentration of the quencher Que; and τ0 is the average lifetime of the fluorophore in the absence of the quencher.
(§3) Considering the static quenching effect between the OG protein/fibrils and the Que ligand, the binding mechanism was further analyzed using a double logarithmic Stern–Volmer equation: (9) lgF0−F/F=lgKa+nlgQ where the binding constant (Ka) and the number of binding sites (n) are key quantitative parameters reflecting the interaction between the bioactive molecule and the protein; the magnitude of Kₐ indicates the binding affinity between Que and the protein.

The target in data set [5] is T2, OG.
T2 construct: native oat globulin isolate, unfibrillated, pH 3.2
The description is as above. The following applies: n = 3. It counts as binding. The method, then:
as §1, §2, §3

In data set [6] the target is T3, UOGF.
T3 construct: amyloid-like fibrils, ultrasound pretreatment (pH 2, 9 W/mL, 20 min) then 90 °C for 18 h, partly hydrolysed
The data set is described as above. The settings on record: n = 3. Type of data set: binding. How it is done:
as §1, §2, §3

In data set [7] the target is T1, OGF. Description: Intrinsic protein fluorescence quenching by quercetin (0-30 uM, 0.3 mg/mL protein, pH 3.2, inner filter corrected), double-logarithmic Stern-Volmer plot, 304 K. The settings on record: n = 3. Type of data set: binding. The method, then: as §1, §2, §3
Data set [8] addresses T2, OG. Described as above. It counts as binding. The following applies: n = 3. How it is done:
as §1, §2, §3

Data set [9] addresses T3, UOGF. The data set is described as above. Type of data set: binding. The following applies: n = 3. How it is done:
as §1, §2, §3

The target of data set [10] is T1, OGF. Kind of data set: Intrinsic protein fluorescence quenching by quercetin (0-30 uM, 0.3 mg/mL protein, pH 3.2, inner filter corrected), double-logarithmic Stern-Volmer plot, 310 K. Type of data set: binding. The settings on record: n = 3. The method, then: as §1, §2, §3
Data set [11] deals with T2, OG. The description is as above. It counts as binding. The following applies: n = 3. The method, then:
as §1, §2, §3

Data set [12] has as its target T3, UOGF. The data set is described as above. The following applies: n = 3. It counts as binding. The method, then: as §1, §2, §3

With `O=c1c(O)c(-c2ccc(O)c(O)c2)oc2cc(O)cc(O)c12` [Que, Quercetin], the “retention rate of Que after UV exposure” value in data set [1] is recorded as 27.78%. In addition, the “bioaccessibility of Que” value in data set [2] is listed as 8.21%. Further, the “retention rate of Que after heating” value stood at 45.13% in data set [3] (30 min) and 26.48% in data set [3] (150 min).

Turning to `O=c1c(O)c(-c2ccc(O)c(O)c2)oc2cc(O)cc(O)c12` [Que, quercetin], the “Ka (M^−1), 298 K” value stood at 17140 M⁻¹ at OGF [4], 12850 M⁻¹ at OG [5] and 20910 M⁻¹ on UOGF [6]. The “Ka (M^−1), 304 K” value at OGF [7] came to 26060 M⁻¹; on OG [8], 16330 M⁻¹; on UOGF [9], 49870 M⁻¹. The “Ka (M^−1), 310 K” value was found to be 79670 M⁻¹ at OGF [10], 16470 M⁻¹ at OG [11] and 202600 M⁻¹ at UOGF [12].
